In ChEMBL document CHEMBL2424554, “Synthesis of new indazole derivatives as potential antioxidant agents” (Med Chem Res, 2013):

Legend:
Assay type in all cases: functional
[1] = Antioxidant activity assessed as ascorbic acid equivalent antioxidant capacity per mg sample after 90 mins by phosphomolybdenum method
[2] = Antioxidant activity assessed as effective concentration for potassium ferric cyanide ion reducing power equivalent of 0.5 absorbance ellagic acid at 100 to 1000 ug/ml after 20 mins by FRAP assay
[3] = Antioxidant activity assessed as DPPH scavenging activity after 20 mins by spectrophotometry; parameters: concentration or dose not given beside the values

Row | SMILES | Activity [1] | Activity [2] | Activity [3]
1 | O=c1c2c([nH]n1-c1ccccc1)C=C(c1ccc(F)cc1)CC2c1ccc(Br)cc1 (stereo not drawn) | 1.97 µM | 0.802 mg/mL | 96.8%
2 | O=c1c2c([nH]n1-c1ccc([N+](=O)[O-])cc1[N+](=O)[O-])C=C(c1ccc(F)cc1)CC2c1ccccc1 (stereo not drawn) | 16.2 µM | 3.26 mg/mL | 4.21%
3 | O=c1c2c([nH]n1-c1ccccc1)C=C(c1ccc(F)cc1)CC2c1ccc(Cl)cc1 (stereo not drawn) | 2.59 µM | 1.49 mg/mL | 94%
4 | O=c1c2c([nH]n1-c1ccc([N+](=O)[O-])cc1[N+](=O)[O-])C=C(c1ccc(F)cc1)CC2c1ccc(Br)cc1 (stereo not drawn) | 4.69 µM | 0.76 mg/mL | 2.34%
5 | O=c1oc2c(O)c(O)cc3c(=O)oc4c(O)c(O)cc1c4c23 | – | 0.105 mg/mL | –
6 | O=c1c2c([nH]n1-c1ccc([N+](=O)[O-])cc1[N+](=O)[O-])C=C(c1ccc(F)cc1)CC2c1ccc(Cl)cc1 (stereo not drawn) | 7.83 µM | 0.75 mg/mL | 19.6%
7 | N[C@@H](CCC(=O)N[C@@H](CS)C(=O)NCC(=O)O)C(=O)O | – | – | 92.1%
8 | O=c1[nH][nH]c2c1C(c1ccc(Br)cc1)CC(c1ccc(F)cc1)=C2 (stereo not drawn) | 1.17 µM | 1.14 mg/mL | 16.2%
9 | O=c1[nH][nH]c2c1C(c1ccccc1)CC(c1ccc(F)cc1)=C2 (stereo not drawn) | 4.75 µM | 0.63 mg/mL | 19.8%
10 | O=c1c2c([nH]n1-c1ccccc1)C=C(c1ccc(F)cc1)CC2c1ccccc1 (stereo not drawn) | 3.95 µM | 1.95 mg/mL | 90.2%
11 | O=c1c2c([nH]n1-c1ccc([N+](=O)[O-])cc1)C=C(c1ccc(F)cc1)CC2c1ccc(Cl)cc1 (stereo not drawn) | 6.22 µM | 0.95 mg/mL | 84.4%
12 | O=c1c2c([nH]n1-c1ccc([N+](=O)[O-])cc1)C=C(c1ccc(F)cc1)CC2c1ccccc1 (stereo not drawn) | 0.69 µM | 0.47 mg/mL | 89.6%
13 | O=c1c2c([nH]n1-c1ccc([N+](=O)[O-])cc1)C=C(c1ccc(F)cc1)CC2c1ccc(Br)cc1 (stereo not drawn) | 0.58 µM | 0.64 mg/mL | 85.3%
14 | O=c1[nH][nH]c2c1C(c1ccc(Cl)cc1)CC(c1ccc(F)cc1)=C2 (stereo not drawn) | 8.4 µM | 1.2 mg/mL | 17.9%
